For 3 compounds, IC50 results are on record in PMC6775094, “A robust bacterial assay for high-throughput screening of human 4-hydroxyphenylpyruvate dioxygenase inhibitors” (Scientific Reports, 2019).

For the assay, the target named is T1, 4-hydroxyphenylpyruvate dioxygenase (HPD) (Homo sapiens, UniProt P32754).
T1 construct: wild type human HPD (NM_002150.2), pET42b(+), expressed in E. coli C43 (DE3)
The assay is described as follows: cell-based.

T1 sequence (P32754 2-393): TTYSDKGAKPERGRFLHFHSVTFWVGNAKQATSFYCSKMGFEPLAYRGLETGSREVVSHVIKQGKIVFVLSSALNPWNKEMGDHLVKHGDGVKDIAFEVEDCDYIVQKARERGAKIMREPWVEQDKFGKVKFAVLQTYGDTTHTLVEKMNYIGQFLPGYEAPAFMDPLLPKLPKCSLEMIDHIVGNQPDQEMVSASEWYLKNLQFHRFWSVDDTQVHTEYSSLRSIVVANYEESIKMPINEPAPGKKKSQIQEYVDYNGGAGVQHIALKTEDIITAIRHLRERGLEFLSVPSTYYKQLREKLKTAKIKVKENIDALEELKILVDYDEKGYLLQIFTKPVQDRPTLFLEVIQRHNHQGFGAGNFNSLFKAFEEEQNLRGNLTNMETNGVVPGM

For the compound `CS(=O)(=O)c1ccc(C(=O)C2C(=O)CCCC2=O)c([N+](=O)[O-])c1` [mesotrione], the IC50 is 396 ± 48 nM.
`CS(=O)(=O)c1ccc(C(=O)C2C(=O)CCCC2=O)c(Cl)c1` [sulcotrione] displayed an IC50 of 187 ± 37 nM.
The value for `CS(=O)(=O)c1ccc(C(=O)C2C(=O)CCCC2=O)c(Cl)c1COCC(F)(F)F` [tembotrione] was 610 ± 15 nM.

As a reminder, the IC50 is the concentration that inhibits the measured activity by half.
